Test results from patent EP0466944A1, “4H-3,1-BENZOXAZIN-4-ONE COMPOUND AND ELASTASE INHIBITOR COMPOSITION CONTAINING THE SAME” (TEIJIN LIMITED, priority 1990, dated 1991).

Tested on: human purulent sputum elastase
Assay: Inhibitory effect on pulmonary hemorrhage in elastase-given hamsters (hemoglobin in bronchoalveolar lavage fluid)
Format: in vivo, Syrian Golden Hamsters
Settings: 1 mg/kg through respiratory tract 30 minutes before elastase (1 mg/kg), lavage three hours after elastase
Description: The efficacy of the compounds of the invention in vivo can be evaluated by the following procedures. In other words, a certain dose of a solution or dispersion of the compound of the invention is given through the respiratory tract, then human purulent sputum elastase is given through the respiratory tract after a certain time. The bronchoalveolar lavage were performed at a definite time after the elastase treatment and the hemoglobin is determined in the bronchoalveolar lavage fluids. The pulmonary hemorrhage is compared with that when a solution containing no compound of the present invention is given to measure the hemorrhage-inhibitory effect of the compounds of the present invention (Bonney et al., J. Cellular Biochemistry, 39, 47 - 53, (1989)).
The compounds according to the invention listed in Table 3 were dissolved or dispersed in 0.01 M phosphate-buffered physiological saline solution (pH 7.5), given to Syrian Golden Hamsters (body weight: about 100 g) 1 mg/kg through respiratory tract, then 30 minutes later, human purulent sputum elastase was given (1 mg/kg) through respiratory tract. Three hours after elastase administration, the animals were sacrificed by bleeding to open their chests and the bronchoalveolar lavage was performed with physiological saline solution. The hemoglobin in the lavage fluid was determined by the cyanmethemoglobin method. […]

Cc1cc(NC(=O)C(Cc2ccccc2)NC(=O)OCc2ccccc2)cc2nc(NC(C)C)oc(=O)c12 (stereo not shown) [Comparative example 1]
inhibition rate of pulmonary hemorrhage: weak
